The experiment has as its target T1, Tumor necrosis factor receptor-associated factor 4 (TRAF4) (Homo sapiens, UniProt Q9BUZ4).
T1 construct: GFP-TRAF4 (MST)
T1 sequence (Q9BUZ4 1-470): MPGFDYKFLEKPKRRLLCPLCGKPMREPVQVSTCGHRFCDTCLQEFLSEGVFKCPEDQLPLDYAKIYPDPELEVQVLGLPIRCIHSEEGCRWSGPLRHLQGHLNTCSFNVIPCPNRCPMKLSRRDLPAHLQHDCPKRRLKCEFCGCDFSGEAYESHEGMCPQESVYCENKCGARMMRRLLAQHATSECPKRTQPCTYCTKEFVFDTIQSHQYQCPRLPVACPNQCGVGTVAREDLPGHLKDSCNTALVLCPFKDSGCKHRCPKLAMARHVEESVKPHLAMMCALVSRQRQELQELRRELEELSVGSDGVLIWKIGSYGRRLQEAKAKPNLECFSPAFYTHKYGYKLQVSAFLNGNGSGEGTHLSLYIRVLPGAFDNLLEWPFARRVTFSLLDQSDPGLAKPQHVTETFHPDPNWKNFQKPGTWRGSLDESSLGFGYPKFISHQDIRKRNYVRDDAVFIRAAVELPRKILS
Put plainly: ITC (Kd […]); also MST (Kd […]), competition of biotin-OA pull-down, CETSA. The class given is binding.

As a reminder, the Kd is the constant that tells how readily two partners part at equilibrium. In turn, `COc1c(O)cc2oc(-c3ccccc3)cc(=O)c2c1O` [OA, Oroxylin A] yielded a Kd of 1100 nM.
